“Also recorded” adds a separate entry of the source. Where two headings read alike, the source gives them in different places.
How the values were obtained:
human PBMCs [1] = experiment: Intracellular TFV-diphosphate in human PBMCs in vitro; settings: human PBMCs (IL-2/PHA) after incubation with 1 μM CMX157 for 48 hours
[2] = cited from earlier work
HIV-1IIIB = experiment: Anti-HIV-1 cytoprotection assay (CEM-SS, XTT)
CEM-SS cells = experiment: Toxicity XTT in CEM-SS cells
HIV-1 subtypes (A-G, O) = experiment: Activity against HIV-1 subtypes in PBMCs; type: cell-based; settings: Human immunodeficiency virus 1, PBMC
[3] = Phase I single dose study, plasma pharmacokinetics; type: in vivo, human; settings: for Cmax / AUC(0-inf): human; for Cmax / AUC(0-inf) / TFV AUCINF / TFV Cmax: plasma; for AUC(0-inf): read-out: CMX157 AUCINF
Experimental: (§1) The study was a randomized, blinded, dose escalation trial to evaluate safety, tolerability, and pharmacokinetics. Healthy volunteers in each cohort (6 active/2 placebo) received a single dose of 25, 50, 100, 200 or 400 mg. An additional cohort received a standard dose of Viread for comparison of TFV-PP levels. For tenofovir anabolite analysis, PBMCs were lysed with 70% ice cold methanol and centrifuged; supernatants were analyzed using LC/MS/MS. The clinical samples were split into two aliquots. One aliquot was used for analysis of CMX157; following addition of an internal standard, these samples were evaporated to dryness prior to reconstitution and analysis. The second aliquot was for analysis of TFV, TFV-monophosphate and TFV-diphosphate; following addition of internal standards, samples were vortexed and centrifuged prior to analysis.

[4] = target: human OAT3 (organic anion transporter3) (Homo sapiens (Human), UniProt Q8TCC7); experiment: hOAT3 mediated uptake in MDCK-II cells; type: in vitro ADME; settings: for Cellular Accumulation (control): control vector cells of hOAT3 test; for Cellular Accumulation (transporter): hOAT3 expressing MDCK-II cells
Experimental: Experimental: The uptake test system was comprised of a polarized monolayer of MCDK-II cells grown on permeable supports. The MDCK-II cells were treated to express the transporter of interest or treated with a control vector.
The uptake of 2 μM [^3H]-p-aminohippurate (PAH) and 0.75 μM [^3H]-estrone-3-sulfate (E-3-S) in the absence and presence of the reference inhibitor was determined by radiometric detection. The uptake of CMX157 and tenofovir was in the absence and presence of the reference inhibitor or 20% human serum was determined by LC/MS/MS. Experiments were performed under the same conditions for the cells expressing the transporter or those treated with the control vector.
Net Transporter Mediated Uptake=(Cellular accumulation in the presence of the transporter)−(Cellular accumulation in the absence of the transporter) Results: The net hOAT1 mediated uptake of tenofovir in the presence and absence of 100 μM probenecid or 20% human serum is shown in FIG. 8. The transport of tenofovir is inhibited by probenecid and relatively unchanged by the presence of 20% human serum. OAT3 also appeared to mediate the transport of tenofovir. The effect of probenecid, however, was minimal. The presence of 20% human serum in the OAT3 experiment reduced the OAT3 mediated transport of tenofovir.

XMRV = XMRV antiviral cytoprotection assay (PG-4 cells, XTT); type: cell-based; settings: 144 h, 6 day assay, read-out: EC50s for XMRV
Experimental: An XMRV antiviral cytoprotection assay was conducted using PG-4 cells (ATCC# CRL-2032; feline astrocytes) and XMRV was collected from the supernatant of 22Rv1 human prostate cancer cells (ATCC# CRL-2505). Inhibition of cytopathic effect was quantified using XTT following a 6 day assay. Ribavirin and AZT were evaluated in parallel as control compounds.

human PBMCs [5] = settings: activated human PBMCs, cited from earlier work
[6] = target: human OAT1 (organic anion transporter1) (Homo sapiens (Human), UniProt Q4U2R8); experiment: hOAT1 mediated uptake in MDCK-II cells; settings: for Cellular Accumulation (control): control vector cells of hOAT1 test; for Cellular Accumulation (transporter): hOAT1 expressing MDCK-II cells
[7] = Phase I single dose study, TFV-diphosphate in PBMCs of healthy volunteers; type: in vivo, human; settings: single 400 mg dose of CMX157
Experimental: as §1

[8] = Phase I single dose study, safety and tolerability; type: in vivo, human; settings: healthy volunteers, single doses 25 mg to 400 mg
Experimental: as §1

[9] = Human immunodeficiency virus 1, IIIB, CEM-SS, 144 h, read-out: CEMSS/IIIB EC50
[10] = single oral dose CMX157 200 mg, mean
[11] = single oral dose CMX157 400 mg, mean
[12] = hOAT3, substrate alone (E3S 0.75 μM)
[13] = hOAT1, substrate alone (PAH 2 μM)

CC(Cn1cnc2c(N)ncnc21)OCP(=O)(O)OP(=O)(O)OP(=O)(O)O (stereo in doubt) [TFV-PP, tenofovir-diphosphate]
in vitro intracellular half-life of TFV-PP (t1/2) (human PBMCs [1]): 79.2 h | median human TFV-PP ([2]; Kiser et al. JAIDS 2008:47): 0.076 pmol/10^6

Cc1cn([C@H]2C[C@H](N=[N+]=[N-])[C@@H](CO)O2)c(=O)[nH]c1=O [AZT, 3′-azido-2′,3′-dideoxythymidine, reference compound]
EC50 (HIV-1IIIB; Human immunodeficiency virus 1, IIIB, CEM-SS): 3 nM | EC50 (HIV-1IIIB; [9]): 3 nM | Therapeutic Index (HIV-1IIIB; TC50/EC50, CEM-SS, HIV-1 IIIB): >33.3 | CEMSS TC50 (CEM-SS cells): >100 nM

CCCCCCCCCCCCCCCCOCCCOP(=O)([O-])CO[C@H](C)Cn1cnc2c(N)ncnc21.[K+] [CMX157 K^+ salt]
EC50 (HIV-1IIIB; CEM-SS cells, HIV-1 IIIB): < 30 nM | EC50 (HIV-1IIIB; read-out: CEMSS/IIIB EC50, CEM-SS cells, HIV-1 IIIB, 6 days, XTT): < 30 nM | CEMSS TC50 (CEM-SS cells): 5200 nM

CCCCCCCCCCCCCCCCOCCCOP(=O)(O)CO[C@H](C)Cn1cnc2c(N)ncnc21 [CMX157, 3-(hexadecyloxy)propyl hydrogen ((R)-1-(6-amino-9H-purin 9-yl)propan-2-yloxy)methylphosphonate]
IC50 (HIV-1 subtypes (A-G, O); previously tested, read-out: IC50s against HIV-1 subtypes (A-G, O)): 1 to 7 nM | EC50 (HIV-1 subtypes (A-G, O); read-out: EC50 against all major subtypes of HIV-1 in PBMCs): 0.2 to 7.18 nM | change of CMX157 plasma Cmax and AUC with dose ([3]; 25 mg to 400 mg single oral dose): approximate linear increase; also recorded: increased linearly with dose | Cmax ([3]; oral, all single dose groups (25 to 400 mg), read-out: Cmax levels): > 10 nM | AUC(0-inf) [3, 10]: 210 ng·h/mL | Cmax ([3]; single oral dose CMX157 200 mg, mean, read-out: CMX157 Cmax): 74 ng/mL | AUC(0-inf) [3, 11]: 376 ng·h/mL | Cmax ([3]; single oral dose CMX157 400 mg, mean, read-out: CMX157 Cmax): 165 ng/mL | substrate for human OAT3 [4]: did not appear to be a substrate | Cellular Accumulation (control) ([4]; + 100 μM probenecid): 49.5 ± 2.65 pmol/min/cm^2 | Cellular Accumulation (control) ([4]; + 20% human serum): 4.90 ± 1.57 pmol/min/cm^2 | Cellular Accumulation (control) ([4]; substrate alone (E3S 0.75 μM)): 39.5 ± 11.6 pmol/min/cm^2 | Net Transporter Mediated Cellular Accumulation ([4]; hOAT3, + 100 μM probenecid): −23.4 ± 7.59 pmol/min/cm^2 | Net Transporter Mediated Cellular Accumulation ([4]; hOAT3, + 20% human serum): 1.26 ± 0.396 pmol/min/cm^2 | Net Transporter Mediated Cellular Accumulation [4, 12]: −8.72 pmol/min/cm^2 | Cellular Accumulation (transporter) ([4]; + 100 μM probenecid): 26.1 ± 7.59 pmol/min/cm^2 | Cellular Accumulation (transporter) ([4]; + 20% human serum): 6.16 ± 0.396 pmol/min/cm^2 | Cellular Accumulation (transporter) ([4]; substrate alone (E3S 0.75 μM)): 30.7 pmol/min/cm^2 | EC50 (XMRV): 3 to 500 nM | TFV-diphosphate produced (human PBMCs [5]; 10 nM CMX157 (Lanier 2010)): 70 fmoles per million cells | Cellular Accumulation (control) ([6]; + 100 μM probenecid): 40.4 ± 5.17 pmol/min/cm^2 | Cellular Accumulation (control) ([6]; + 20% human serum): 6.46 ± 0.168 pmol/min/cm^2 | Cellular Accumulation (control) ([6]; substrate alone (PAH 2 μM)): 50.3 ± 1.30 pmol/min/cm^2 | Net Transporter Mediated Cellular Accumulation ([6]; hOAT1, + 100 μM probenecid): −14.5 ± 4.65 pmol/min/cm^2 | Net Transporter Mediated Cellular Accumulation ([6]; hOAT1, + 20% human serum): −0.954 ± 1.70 pmol/min/cm^2 | Net Transporter Mediated Cellular Accumulation [6, 13]: −13.0 ± 0.0465 pmol/min/cm^2 | Cellular Accumulation (transporter) ([6]; + 100 μM probenecid): 25.9 ± 4.65 pmol/min/cm^2 | Cellular Accumulation (transporter) ([6]; + 20% human serum): 5.51 ± 1.70 pmol/min/cm^2 | Cellular Accumulation (transporter) ([6]; substrate alone (PAH 2 μM)): 37.3 ± 0.0465 pmol/min/cm^2 | TFV-diphosphate in PBMCs [7]: measurable in all subjects; also recorded: measurable in PBMCs from all patients | TFV-diphosphate in PBMCs 6 days after dosing [7]: all but one had detectable levels | serious and remarkable adverse events [8]: No SAEs or remarkable AEs were reported | subjects reporting mild headache [8]: 3 | tolerability [8]: well tolerated

C[C@H](Cn1cnc2c(N)ncnc21)OCP(=O)(O)OCCCO [CMX157-210]
EC50 (HIV-1IIIB; [9]): > 10000 nM | CEMSS TC50 (CEM-SS cells): >10000 nM

C[C@H](Cn1cnc2c(N)ncnc21)OCP(=O)(O)OCCCOCC(=O)O [CMX157-211]
EC50 (HIV-1IIIB; [9]): > 10000 nM | CEMSS TC50 (CEM-SS cells): >10000 nM

C[C@H](Cn1cnc2c(N)ncnc21)OCP(=O)(O)OCCCOCCCC(=O)O [CMX157-220]
EC50 (HIV-1IIIB; [9]): > 10000 nM | CEMSS TC50 (CEM-SS cells): >10000 nM

C[C@]12CC[C@@H]3c4ccc(OS(=O)(=O)O)cc4CC[C@H]3[C@@H]1CCC2=O [E3S, estrone-3-sulfate]
Cellular Accumulation (control) ([4]; substrate alone (E3S 0.75 μM)): 39.5 ± 11.6 pmol/min/cm^2 | Net Transporter Mediated Cellular Accumulation [4, 12]: −8.72 pmol/min/cm^2 | Cellular Accumulation (transporter) ([4]; substrate alone (E3S 0.75 μM)): 30.7 pmol/min/cm^2

C[C@H](Cn1cnc2c(N)ncnc21)OCP(=O)(O)O [Tenofovir, (R)-9-(2-phosphonylmethoxypropyl)adenine, reference compound]
TFV AUCINF [3, 10]: 283 ng·h/mL | TFV Cmax [3, 10]: 16 ng/mL | TFV AUCINF [3, 11]: 371 ng·h/mL | TFV Cmax [3, 11]: 27 ng/mL | Cellular Accumulation (control) ([4]; + 100 μM probenecid): 1.94 ± 0.345 pmol/min/cm^2 | Cellular Accumulation (control) ([4]; + 20% human serum): 2.28 ± 1.24 pmol/min/cm^2 | Cellular Accumulation (control) ([4]; substrate alone (E3S 0.75 μM)): 2.65 ± 1.96 pmol/min/cm^2 | Net Transporter Mediated Cellular Accumulation ([4]; hOAT3, + 100 μM probenecid): 1.35 ± 0.364 pmol/min/cm^2 | Net Transporter Mediated Cellular Accumulation ([4]; hOAT3, + 20% human serum): −0.292 ± 0.0591 pmol/min/cm^2 | Net Transporter Mediated Cellular Accumulation [4, 12]: 1.03 ± 0.591 pmol/min/cm^2 | Cellular Accumulation (transporter) ([4]; + 100 μM probenecid): 3.29 ± 0.364 pmol/min/cm^2 | Cellular Accumulation (transporter) ([4]; + 20% human serum): 1.99 ± 0.0591 pmol/min/cm^2 | Cellular Accumulation (transporter) ([4]; substrate alone (E3S 0.75 μM)): 3.68 ± 0.591 pmol/min/cm^2 | TFV-diphosphate produced (human PBMCs [5]; 1 μM TFV): 50 fmoles per million cells | substrate for human OAT1 ([6]; MDCK): appeared to be a substrate | Cellular Accumulation (control) ([6]; + 100 μM probenecid): 2.22 ± 0.995 pmol/min/cm^2 | Cellular Accumulation (control) ([6]; + 20% human serum): 1.77 ± 1.13 pmol/min/cm^2 | Cellular Accumulation (control) ([6]; substrate alone (PAH 2 μM)): 2.45 ± 0.197 pmol/min/cm^2 | Net Transporter Mediated Cellular Accumulation ([6]; hOAT1, + 100 μM probenecid): 4.49 ± 1.46 pmol/min/cm^2 | Net Transporter Mediated Cellular Accumulation ([6]; hOAT1, + 20% human serum): 20.0 ± 3.45 pmol/min/cm^2 | Net Transporter Mediated Cellular Accumulation [6, 13]: 19.5 ± 4.04 pmol/min/cm^2 | Cellular Accumulation (transporter) ([6]; + 100 μM probenecid): 6.71 ± 1.46 pmol/min/cm^2 | Cellular Accumulation (transporter) ([6]; + 20% human serum): 21.8 ± 3.45 pmol/min/cm^2 | Cellular Accumulation (transporter) ([6]; substrate alone (PAH 2 μM)): 21.9 ± 4.04 pmol/min/cm^2 | Cmax ([2]; VIREAD package insert 2007): ~1000 nM
